Source: US9295672B2, “Optically active pyrazolylaminoquinazoline, and pharmaceutical compositions and methods of use thereof” (Ambit Biosciences Corp., priority 2010, dated 2016)

Assays:
phosphodiesterase PDE4 = test: Inhibition of phosphodiesterase PDE4; type: biochemical; settings: human U937 cells; read-out: IC50 against phosphodiesterase PDE4
Description: Human U937 cells were used in this assay. The final DMSO concentration in the assay was about 1%. The assay was pre-incubated at 25° C. for 15 min and then incubated at 25° C. for 20 min in an incubation buffer (50 mM Tris-HCl, pH 7.5, 5 mM MgCl2). The assay was quantitated by measuring the amount of [^3H]adenosine.

[1] = Solubility tests of the ketone substrate in solvents; type: physicochemical; settings: 20 ° C.
Description: Solubility tests were conducted by adding (4-fluorophenyl)(4-(5-methyl-4H-pyrazol-3-ylamino)quinazolin-2-yl)methanone in small portions to a number of solvents until a suspended solid persisted. A number of solvents were selected for this study based on their suitability as co-solvents for the reaction.

[2] = Solubility tests of ketone, alcohol and their mixture in IPA/DMSO/water at 70° C.; type: physicochemical; settings: 1.113 g of material at 70° C., IPA 4 mL, Water 0.5 mL
Description: The aim of these experiments was to find the minimum amount of DMSO necessary to dissolve reagents and create homogeneous reaction mixture. One tube contained starting material, the second one a mixture of starting material and product (1/1) to simulate situation when reaction is half complete and the third tube contained product. Experiments were started in 5 mL of IPA/DMSO/water (8/1/1), where none of the mixtures was soluble at 70° C. DMSO was then added dropwise until full solubility could be reached. […] At these conditions, starting material was still partially undissolved. This experiment was used to determine the necessary amounts of DMSO to create a homogeneous reaction mixture (upon keeping the original quantities of IPA and water).

[3] = target: human adenosine A3 receptor (Homo sapiens (Human), UniProt P0DMS8); test: Adenosine A3 receptor radioligand binding assay ([125I] AB-MECA)
Sequence of human adenosine A3 receptor (P0DMS8 whole entry): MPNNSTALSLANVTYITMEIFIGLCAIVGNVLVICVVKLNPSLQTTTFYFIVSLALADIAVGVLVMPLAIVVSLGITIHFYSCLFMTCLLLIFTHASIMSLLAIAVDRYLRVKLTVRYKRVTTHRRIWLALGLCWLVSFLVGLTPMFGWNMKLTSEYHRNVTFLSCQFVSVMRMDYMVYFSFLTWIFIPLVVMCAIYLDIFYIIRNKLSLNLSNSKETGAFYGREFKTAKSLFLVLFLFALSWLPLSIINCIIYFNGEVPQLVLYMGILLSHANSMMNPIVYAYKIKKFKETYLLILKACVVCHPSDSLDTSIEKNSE
Description: Incubations of a range of concentration of each compound were carried out in duplicates for 1 h at 25° C. in 25 mM HEPES, pH 7.4, 5 mM MgCl2, 1 mM CaCl2, 0.1% BSA, in the presence of 0.5 nM [^125I] AB-MECA. Non-specific binding was determined in the presence of 1 μM IB-MECA.

[4] = cynomolgus monkey, in vivo

Structure (SMILES)	Result (solubility test) ([2]; DMSO 0.5 mL)	Result (solubility test) ([2]; DMSO 5.5 mL)	Result (solubility test) ([2]; DMSO 7.5 mL)	Hill Coefficient [3]	also measured
Cc1cc(Nc2nc(C(O)c3ccc(F)cc3)nc3ccccc23)n[nH]1 (racemic) [Racemate]					IC50 (phosphodiesterase PDE4): 2.53 µM
CC1=NN=C(Nc2nc(C(=O)c3ccc(F)cc3)nc3ccccc23)C1 [(4-fluorophenyl)(4-(5-methyl-4H-pyrazol-3-ylamino)quinazolin-2-yl)methanone]					Solubility ([1]; solvent DMSO): 12000 to 149000 µg/mL; Solubility ([1]; solvent EtOAc): <6000 µg/mL; Solubility ([1]; solvent IPA-H2O (9:1)): <7000 µg/mL; Solubility ([1]; solvent PhMe): <9000 µg/mL; Solubility ([1]; solvent THF): <17000 µg/mL
CCO [Alcohol]	Not dissolved	Dissolved	Dissolved		
Cc1cc(Nc2nc(C(=O)c3ccc(F)cc3)nc3ccccc23)n[nH]1 [Ketone]	Not dissolved	Not dissolved	Not dissolved		
Cc1cc(Nc2nc([C@H](O)c3ccc(F)cc3)nc3ccccc23)n[nH]1 [R-isomer]				1.14	share of the Cmax and AUC values determined for the racemic compound ([4]; male): over 85%
Cc1cc(Nc2nc([C@@H](O)c3ccc(F)cc3)nc3ccccc23)n[nH]1 [S-isomer]				0.811	proportion of both enantiomers in plasma ([4]; po): almost equal proportions
